Reference: ChEMBL document CHEMBL5260832, “Hepatoprotective natural triterpenoids” (Eur J Med Chem, 2018)

What was measured:
HepG2 [1] = assay: Hepatoprotective activity against H2O2-induced human HepG2 cells assessed as increase in ALT level; assay type: functional
HepG2 [2] = assay: Hepatoprotective activity against H2O2-induced human HepG2 cells assessed as increase in AST level at 186.00 uM; assay type: functional
Huh-7 [3] = assay: Protection against CCl4-induced cell damage in human Huh-7 cells assessed as reduction in ALT level at […] (reference value: 40.2 U/ml); assay type: functional; parameters: dose or concentration left out as unconfirmed
Mus musculus [4] = organism: Mus musculus; assay: Protection against D-GaIN/TNFalpha induced cell death in mouse liver parenchymal cells assessed as reduction in GPT level measured after 2 hrs; assay type: functional, cell-based
[5] = Hepatotoxicity in D-GaIN induced Wistar rat assessed as change in GTP leakage level for 10 days relative to control; assay type: toxicity; settings: in vivo, 240 h, time 10 day
Mus musculus [6] = organism: Mus musculus; assay: Hepatoprotective activity against D-galactosamine-induced liver injury mouse model assessed as […] leakage at 50 ug/ml; assay type: functional; settings: dose 50 µg/ml
[7] = Hepatotoxicity in D-GaIN induced Wistar rat assessed as change in induction of TAT level for 10 days relative to control; assay type: toxicity; parameters: concentration or dose not given beside the values; settings: in vivo, 240 h, time 10 day
Hepatocyte [8] = assay: Protection against CCL4-induced rat hepatocyte toxicity assessed as reduction in ALT level at 90 uM relative to control; assay type: functional; parameters: scale not given: the % may be the effect or the level left
Mus musculus [9] = organism: Mus musculus; assay: Hepatoprotective activity in CCl4-induced mouse assessed as change in SGPT level (reference value: 6.9 mmol/L); assay type: functional
Mus musculus [10] = assay: Hepatoprotective activity against D-GaIN/LPS induced liver injury mouse model assessed as reduction in ALT at 100 mg/kg, ip relative to control; assay type: functional; parameters: scale not given: the % may be the effect or the level left
Mus musculus [11] = assay: Hepatoprotective activity against D-GaIN/LPS induced liver injury mouse model assessed as reduction in AST at 100 mg/kg, ip relative to control; assay type: functional; parameters: scale not given: the % may be the effect or the level left
Mus musculus [12] = assay: Hepatoprotective activity against D-GaIN/LPS induced liver injury mouse model assessed as reduction in LDH level at 100 mg/kg, ip relative to control; assay type: functional; parameters: scale not given: the % may be the effect or the level left
Mus musculus [13] = assay: Hepatoprotective activity against CCl4-induced liver injury mouse model assessed as increase in SOD level at 20 ug/mL, ip relative to control (reference value: 5.89 IU/L); assay type: functional; settings: dose 20.0 µg/ml
Hepatocyte [14] = assay: Hepatoprotective activity against CCL4-induced rat hepatocyte toxicity assessed as decrease in ALP level at 3.33 mg/mL preincubated for 30 mins followed by CCL4 addition and measured after 180 mins by colorimetric method; assay type: functional; settings: time 210.0 min
Mus musculus [15] = assay: Hepatoprotective activity against CCl4-induced liver injury mouse model assessed as reduction in ALT at 20 ug/mL, ip relative to control (reference value: 13.23 IU/L); assay type: functional; settings: dose 20.0 µg/ml
Mus musculus [16] = assay: Hepatoprotective activity against CCl4-induced liver injury mouse model assessed as reduction in MDA level at 20 ug/mL, ip relative to control (reference value: 9.27 IU/L); assay type: functional; settings: dose 20.0 µg/ml
Hepatocyte [17] = assay: Hepatoprotective activity against CCL4-induced rat hepatocyte toxicity assessed as decrease in GOT level at 3.33 mg/mL preincubated for 30 mins followed by CCL4 addition and measured after 180 mins by colorimetric method; assay type: functional; settings: time 210.0 min
Mus musculus [18] = assay: Hepatoprotective activity against CCl4-induced liver injury mouse model assessed as reduction in AST at 20 ug/mL, ip relative to control (reference value: 9.27 IU/L); assay type: functional; settings: dose 20.0 µg/ml
Hepatocyte [19] = assay: Hepatoprotective activity against CCL4-induced rat hepatocyte toxicity assessed as decrease in GPT level at 3.33 mg/mL preincubated for 30 mins followed by CCL4 addition and measured after 180 mins by colorimetric method; assay type: functional; settings: time 210.0 min
Huh-7 [20] = assay: Hepatoprotective activity against CCL4-induced mouse model in human Huh-7 cells assessed as decrease in ALT level at 100 ug/mL; assay type: functional; settings: dose 100.0 µg/ml
HepG2 [21] = assay: Hepatoprotective activity against H2O2-induced human HepG2 cells assessed as increase in AST level at 25.55 uM; assay type: functional
Mus musculus [22] = organism: Mus musculus; assay: Hepatoprotective activity in mouse liver homogenate assessed as inhibition of iron/ascorbate lipid peroxidation at 5.0 mg/mL relative to control; assay type: functional; parameters: scale not given: the % may be the effect or the level left
Mus musculus [23] = organism: Mus musculus; assay: Hepatoprotective activity in mouse liver homogenate assessed as inhibition of iron/ascorbate lipid peroxidation at 0.1 mg/mL relative to control; assay type: functional; parameters: scale not given: the % may be the effect or the level left

## C/C(=C\CC[C@@H](C)[C@H]1CC[C@@]2(C)C3=C(CC[C@]12C)[C@@]1(C)CC[C@H](O)C(C)(C)[C@@H]1CC3=O)C(=O)O
HepG2 [1]
  Activity: 20.95 U/L
HepG2 [2]
  Activity: 24.27 U/L

## C[C@@H]1CC[C@]2(C(=O)O[C@@H]3O[C@H](CO)[C@@H](O)[C@H](O)[C@H]3O)CC[C@]3(C)C(=CC[C@@H]4[C@@]5(C)C[C@H](O)[C@H](O)C(C)(C)[C@@H]5CC[C@]43C)[C@@H]2[C@]1(C)O
Huh-7 [3]
  Activity: 15.4 U/ml

## CC(=O)OC[C@H]1O[C@@H](O[C@H]2C[C@]3(C)[C@H](C[C@@H](O)[C@@H]4[C@@H]([C@]5(C)CC[C@@H](C(C)(C)O)O5)CC[C@]43C)[C@@]3(C)CC[C@H](O)C(C)(C)[C@H]23)[C@H](O[C@@H]2O[C@@H](C)[C@H](O)[C@@H](O)[C@H]2O)[C@@H](O)[C@@H]1O
Mus musculus [4]
  IC50: 47 µM

## CC1(C)CC[C@]2(C)CC[C@]3(C)C(=CC[C@@H]4[C@@]5(C)CC[C@@H](O)C(C)(C)[C@@H]5CC[C@]43C)[C@@H]2C1
[5]
  Activity: 5.3%
Mus musculus [6]
  Activity: 60.8%
[7]
  Activity: 70.2%

## C[C@@H]1O[C@@H](O[C@H]2[C@H](O[C@H]3CC[C@]4(C)[C@H]5CC=C6[C@@H]7CC(C)(C)CC[C@]7(C(=O)O[C@@H]7O[C@H](CO)[C@@H](O[C@@H]8O[C@H](CO)[C@@H](O)[C@H](O)[C@H]8O)[C@H](O)[C@H]7O[C@@H]7O[C@H](CO)[C@@H](O)[C@H](O)[C@H]7O)[C@H](O)C[C@@]6(C)[C@]5(C)CC[C@H]4C3(C)C)O[C@H](CO)[C@@H](O)[C@@H]2O)[C@H](O)[C@H](O)[C@H]1O
Hepatocyte [8]
  Activity: 4%

## CC1(C)CC[C@]2(C(=O)O)CC[C@]3(C)C(=CC[C@@H]4[C@@]5(C)CCC(OC(=O)/C=C/c6ccc(O)c(O)c6)C(C)(C)[C@@H]5CC[C@]43C)[C@@H]2C1 (stereo not given in full)
Mus musculus [9]
  Activity: 3.53 mmol/L

## SILYMARIN
Mus musculus [10]
  Activity: 68%
Mus musculus [11]
  Activity: 66%
Mus musculus [12]
  Activity: 43%
Mus musculus [13]
  Activity: 21.7 U/ml
Hepatocyte [14]
  Activity: 13.7 IU/L
Mus musculus [15]
  Activity: 4.82 U/ml
Mus musculus [16]
  Activity: 3.84 nmol/mL
Hepatocyte [17]
  Activity: 18.5 IU/L
Mus musculus [18]
  Activity: 4.24 IU/L
Hepatocyte [19]
  Activity: 11.3 IU/L
Huh-7 [20]
  Activity: 10.2 U/ml

## CC(=O)[C@H]1CC(=O)[C@@]2(C)C3=C(C(=O)C[C@]12C)[C@@]1(C)CCC(=O)C(C)(C)[C@@H]1CC3=O
HepG2 [1]
  Activity: 21.42 U/L
HepG2 [21]
  Activity: 26.83 U/L

## CC1(C)CC[C@]2(C(=O)O)CC[C@]3(C)C(=CC[C@@H]4[C@@]5(C)CC[C@H](O)C(C)(C)[C@@H]5CC[C@]43C)[C@@H]2C1 [OLEANOLIC_ACID]
Mus musculus [9]
  Activity: 3.64 mmol/L
Mus musculus [22]
  Activity: 38.8%
Mus musculus [23]
  Activity: 13.7%
